Source: patent publication EP4707284A1, “HETEROCYCLIC COMPOUND AND USE THEREOF” (Otsuka Pharmaceutical Co., Ltd., priority 2023, dated 2024)

Format: physicochemical
Details: Tris-hydrochloric acid buffer (pH 7.5) 50 mmol/L, magnesium chloride 5 mmol/L, evaluation compound 1 µmol/L, 37°C, 60 minutes, average of duplicate
Description: The conversion from the evaluation compounds to brexpiprazole in a buffer (i.e., the stability of the evaluation compounds) was evaluated.
The Example 1 compound was dissolved in acetonitrile/water (1:1, v/v) to 10 mmol/L and further diluted with acetonitrile/water (1:1, v/v) to 100 µmol/L for use.
The other Example compounds and the Reference Example 5 compound to Reference Example 7 compound were each dissolved in DMSO to 10 mmol/L and further diluted with acetonitrile to 100 µmol/L for use, except for the following compounds.
The compounds of Examples 52, 95, 96, 117, and 130 (EX 52, EX 95, EX 96, EX 117, and EX 130) were dissolved in acetonitrile/water (8:2, v/v) to 10 mmol/L and further diluted with acetonitrile to 100 µmol/L for use.
The compound of Example 97 (EX 97) was dissolved in acetonitrile/water (8:2, v/v) to 10 mmol/L and further diluted with acetonitrile/water (8:2, v/v) to 100 µmol/L for use.
The compounds of Examples 15 and 116 (EX 15 and EX 116) were dissolved in DMSO to 1 mmol/L and further diluted with acetonitrile to 100 µmol/L for use.
These evaluation compound solutions were prepared at the time of use.
The reaction was conducted by preparing each reaction solution such that the final concentration of each component was as follows. The test was conducted in duplicate.
For the compounds of Examples 1 to 8, 10 to 19, 26 to 27, 37, 50, 87 to 89, 91, 116, 121, 123, 150, and 151 (EX 1 to EX 8, EX 10 to EX 19, EX 26 to EX 27, EX 37, EX 50, EX 87 to EX 89, EX 91, EX 116, EX 121, EX 123, EX 150, and EX 151), and the compounds of Reference Examples 5 to 7 (REX 5 to REX 7), the reaction solution without the evaluation compound (198 µl) was pre-incubated at 37°C for 3 minutes, and then each of the evaluation compound solutions (2 µl) was added and stirred; thereafter, the reaction was started at 37°C. At 0 minutes or 60 minutes after the start of the reaction, the reaction was stopped by adding and stirring a reaction stop solution (1000 µl) composed of acetonitrile/isopropanol (4:1, v/v) containing internal standard substances. However, the 0-minute reaction sample (198 µl) was prepared by adding the evaluation compound (2 µl) after adding the reaction stop solution (1000 µl). The samples after stopping the reaction were used as the measurement samples. Calibration curve samples with the same composition were prepared (final concentrations of the evaluation compounds and brexpiprazole: 0.01, 0.1, and 1 µmol/L, with the proviso that for the evaluation compounds only, the 0-minute reaction samples were also used as calibration curve samples for 1 µmol/L).
For the compounds of Examples 24 to 25, 28 to 29, 32 to 36, 40 to 49, 51 to 60, 62 to 64, 66 to 77, 80 to 86, 90, 92 to 111, 113, 115, 117 to 120, 122, 124 to 130, 132 to 147, and 152 to 160 (EX 24 to EX 25, EX 28 to EX 29, EX 32 to EX 36, EX 40 to EX 49, EX 51 to EX 60, EX 62 to EX 64, EX 66 to EX 77, EX 80 to EX 86, EX 90, EX 92 to EX 111, EX 113, EX 115, EX 117 to EX 120, EX 122, EX 124 to EX 130, EX 132 to EX 147, and EX 152 to EX 160), the reaction solution without the evaluation compound (148.5 µl) was pre-incubated at 37°C for 3 minutes, and then each of the evaluation compound solutions (1.5 µl) was added and stirred; thereafter, the reaction was started at 37°C. At 0 minutes or 60 minutes after the start of the reaction, the reaction was stopped by adding and stirring a reaction stop solution (600 µl) composed of acetonitrile/isopropanol (4:1, v/v) containing internal standard substances. However, the 0-minute reaction sample (148.5 µl) was prepared by adding the evaluation compound (1.5 µl) after adding the reaction stop solution (600 µl). The samples after stopping the reaction were used as the measurement samples. […]

Row | SMILES | Concentration of brexpiprazole formed [nM] | Concentration of evaluation compound decreased [nM]
1 | COCCCCOP(=O)([O-])OC[N+]1(CCCCOc2ccc3ccc(=O)[nH]c3c2)CCN(c2cccc3sccc23)CC1 [EX 50] | 0 | 10
2 | CC(C)COCCOP(=O)([O-])OC[N+]1(CCCCOc2ccc3ccc(=O)[nH]c3c2)CCN(c2cccc3sccc23)CC1 [EX 51] | 0 | 50
3 | O=c1ccc2ccc(OCCCC[N+]3(COP(=O)([O-])OCCOCC4CC4)CCN(c4cccc5sccc45)CC3)cc2[nH]1 [EX 52] | 0 | -40
4 | COCCOCOCCCCOP(=O)([O-])OC[N+]1(CCCCOc2ccc3ccc(=O)[nH]c3c2)CCN(c2cccc3sccc23)CC1 [EX 53] | 0 | 60
5 | COCC1CCC(COP(=O)([O-])OC[N+]2(CCCCOc3ccc4ccc(=O)[nH]c4c3)CCN(c3cccc4sccc34)CC2)CC1 (centres unmarked) [EX 54] | 0 | 140
6 | CC1(C)OCC(COP(=O)([O-])OC[N+]2(CCCCOc3ccc4ccc(=O)[nH]c4c3)CCN(c3cccc4sccc34)CC2)CO1 [EX 55] | 0 | 70
7 | COCC(COC)OP(=O)([O-])OC[N+]1(CCCCOc2ccc3ccc(=O)[nH]c3c2)CCN(c2cccc3sccc23)CC1 [EX 56] | 0 | 40
8 | O=C(OCCCCCCOP(=O)([O-])OC[N+]1(CCCCOc2ccc3ccc(=O)[nH]c3c2)CCN(c2cccc3sccc23)CC1)c1ccccc1 [EX 57] | 0 | 90
9 | COc1ccc(C(=O)OCCCCCCOP(=O)([O-])OC[N+]2(CCCCOc3ccc4ccc(=O)[nH]c4c3)CCN(c3cccc4sccc34)CC2)cc1 [EX 58] | 0 | 40
10 | Cc1cccc(C(=O)OCCCCCCOP(=O)([O-])OC[N+]2(CCCCOc3ccc4ccc(=O)[nH]c4c3)CCN(c3cccc4sccc34)CC2)n1 [EX 59] | 0 | 50
11 | O=c1ccc2ccc(OCCCC[N+]3(COP(=O)([O-])OCCCCBr)CCN(c4cccc5sccc45)CC3)cc2[nH]1 [EX 62] | 0 | 180
12 | O=c1ccc2ccc(OCCCC[N+]3(COP(=O)([O-])OCC#CCCl)CCN(c4cccc5sccc45)CC3)cc2[nH]1 [EX 63] | 0 | 20
13 | O=c1ccc2ccc(OCCCC[N+]3(COP(=O)([O-])OCCCCCCCBr)CCN(c4cccc5sccc45)CC3)cc2[nH]1 [EX 64] | 0 | 30
14 | CSCCCOP(=O)([O-])OC[N+]1(CCCCOc2ccc3ccc(=O)[nH]c3c2)CCN(c2cccc3sccc23)CC1 [EX 66] | 0 | 170
15 | CC1(C)OCC(C(=O)OCOP(=O)([O-])OC[N+]2(CCCCOc3ccc4ccc(=O)[nH]c4c3)CCN(c3cccc4sccc34)CC2)CO1 [EX 67] | 0 | 90
16 | CC(C)(C)OC(=O)CCCC(=O)OCOP(=O)([O-])OC[N+]1(CCCCOc2ccc3ccc(=O)[nH]c3c2)CCN(c2cccc3sccc23)CC1 [EX 69] | 0 | -10
17 | O=C(O)CCCC(=O)OCOP(=O)([O-])OC[N+]1(CCCCOc2ccc3ccc(=O)[nH]c3c2)CCN(c2cccc3sccc23)CC1 [EX 70] | 0 | 0
18 | CC(C)(CC(=O)O)CC(=O)OCOP(=O)([O-])OC[N+]1(CCCCOc2ccc3ccc(=O)[nH]c3c2)CCN(c2cccc3sccc23)CC1 [EX 71] | 0 | 100
19 | COc1ccc(COC(=O)CC(C)(C)CC(=O)OCOP(=O)([O-])OC[N+]2(CCCCOc3ccc4ccc(=O)[nH]c4c3)CCN(c3cccc4sccc34)CC2)cc1 [EX 72] | 0 | 150
20 | CC(C)NC(=O)CCCC(=O)OCOP(=O)([O-])OC[N+]1(CCCCOc2ccc3ccc(=O)[nH]c3c2)CCN(c2cccc3sccc23)CC1 [EX 73] | 0 | 130
21 | CC1(C)OCC(NC(=O)CCCC(=O)OCOP(=O)([O-])OC[N+]2(CCCCOc3ccc4ccc(=O)[nH]c4c3)CCN(c3cccc4sccc34)CC2)CO1 [EX 74] | 0 | 50
22 | CC1(C)OCC(COC(=O)CCCCC(=O)OCOP(=O)([O-])OC[N+]2(CCCCOc3ccc4ccc(=O)[nH]c4c3)CCN(c3cccc4sccc34)CC2)CO1 [EX 75] | 0 | 70
23 | CC(C)NC(=O)CCCCCCCCC(=O)OCOP(=O)([O-])OC[N+]1(CCCCOc2ccc3ccc(=O)[nH]c3c2)CCN(c2cccc3sccc23)CC1 [EX 76] | 0 | 0
24 | COCCOC(=O)CCCCCCCCCCC(=O)OCOP(=O)([O-])OC[N+]1(CCCCOc2ccc3ccc(=O)[nH]c3c2)CCN(c2cccc3sccc23)CC1 [EX 77] | 0 | 110
25 | CC(=O)Oc1ccccc1C(=O)OCOP(=O)([O-])OC[N+]1(CCCCOc2ccc3ccc(=O)[nH]c3c2)CCN(c2cccc3sccc23)CC1 [EX 80] | 0 | 170
26 | Cc1ncccc1C(=O)OCOP(=O)([O-])OC[N+]1(CCCCOc2ccc3ccc(=O)[nH]c3c2)CCN(c2cccc3sccc23)CC1 [EX 81] | 0 | -30
27 | COC(=O)[C@H](COP(=O)([O-])OC[N+]1(CCCCOc2ccc3ccc(=O)[nH]c3c2)CCN(c2cccc3sccc23)CC1)NC(=O)OC(C)(C)C [EX 83] | 0 | 70
28 | O=c1ccc2ccc(OCCCC[N+]3(COP(=O)([O-])OCCCOc4ccccc4)CCN(c4cccc5sccc45)CC3)cc2[nH]1 [EX 84] | 0 | 10
